pEC50, pIC50: −log10 of the molar value. Where two headings read alike, the source gives them in different places.
Legend:
[1] = test system: L. donovani promastigotes; assay: L. donovani promastigote viability assay (resazurin); type: cell-based, Leishmania donovani; conditions: for pEC50: promastigotes, 48 h, read-out: EC50 L. donovani (pro)
Procedure: Promastigotes of L. donovani from late log phase culture were diluted to 2.0 × 10^6/mL in M-199 containing 10% FBS, 25 mM HEPES (Gibco 15630-080), 100 µM adenine, 12 mM NaHCO3, 10 µM folic acid, 1% penicillin/streptomycin (Gibco 15140-122) as described previously. Compounds and controls were transferred from compound plates to 384 well assay plates with the use of an acoustic transfer system (ATS, EDC Biosystems, Fremont, CA, USA). Promastigotes were incubated with compounds at 29 °C for 48 h. To measure parasite viability, resazurin sodium salt (7-hydroxy-3H-phenoxazin3-one 10-oxide) was dissolved in PBS and added to each well at a volume of 5 µL (final concentration of 44 µM). After incubating for 4 h at room temperature, fluorescence (ex 571 nm/em 584 nm) was recorded with an Envision (Perkin Elmer, Waltham, MA, USA) microplate fluorescence/luminescence reader. […] For positive and negative control amphotericin B and 0.5% DMSO was used, respectively. Dose response and EC50 analyses were obtained using GraphPad Prism 9 Software (Graph Pad Software Inc., San Diego, CA, USA).

[2] = test system: L. donovani intracellular amastigotes; assay: L. donovani intracellular amastigote assay in B10R cells (high content imaging); type: cell-based, Leishmania donovani
Procedure: For the intracellular amastigote stage assay, L. donovani was incubated at a density of 1 × 10^6 parasites/mL for six days at 29 °C before infection to enrich the proportion of metacyclic promastigotes. B10R monocyte cell lines were cultured in RPMI supplemented with 10% FBS and 1%penicillin/streptomycin at 37 °C in 5% CO2. After 72 h, cells were counted with a hemocytometer and mixed with the six-day-old parasites. Into 384-well assay plates, that had been pre-spotted with compounds diluted 1000-fold in DMSO, with final assay concentrations ranging from 20 µM to 0.02 µM and tested in biological triplicates., 500 B10R cells and 7000 parasites were dispensed per well in a final volume of 50 µL using a Multidrop Combi liquid dispenser (ThermoScientific, Waltham, MA, USA). Plates were incubated at 37 °C and 5% CO2 for 72 h. Cultures were then fixed with 4% formaldehyde solution for 30 min and stained with 0.5 µg/mL DAPI (diamidino-2-phenylindole). Plates were then imaged using an ImageXpress Micro XLS automated high content imager (Molecular Devices, San Jose, CA, USA) using a 10× air objective. A custom image analysis module generated in ImageXpress was used to count the nuclei of host and parasite cells. EC50 values were obtained using the GraphPad Prism 9 Software with biological triplicates.

[3] = test system: C2C12 cells; assay: Cytotoxicity to C2C12 host cells; type: cell-based; conditions: mouse myoblast host cells, 72 h
Procedure: Mouse C2C12 myoblasts (ATCC CRL-1772) were cultivated in RPMI 1640 medium supplemented with 5% FBS and kept at 37 °C and 5% CO2. T. cruzi CAI-72 trypomastigotes were obtained from the supernatant of C2C12 cells infected four to seven days previously. For the assay, 500 C2C12 cells were mixed with 7500 T. cruzi parasites and seeded into 384-well plates at a 50 µL final volume. Test compounds and reference drugs (Benznidazole and K11777) were pre-spotted into the 384 well black bottom plates prior to the addition of cells and parasites with final assay concentration of 20 µM to 0.02 µM. The plates were incubated at 37 °C^, 5% CO2 for 72 h. Cultures were then fixed with 4% formaldehyde and 0.5 µg/mL DAPI (diamidino-2-phenylindole) was added for staining nucleic acids. Plates were kept protected from light for 1 h and then imaged in an ImageXpress Micro XLS automated high content imager (Molecular Devices, San Jose, CA, USA). Imaging and data analysis were performed as described for L. donovani amastigotes on biological triplicates.

[4] = test system: G. lamblia (WB strain) trophozoites; assay: G. lamblia trophozoite viability assay (CellTiter-Glo); type: cell-based, Giardia lamblia; conditions: 48 h
Procedure: Trophozoites of G. lamblia (WB strain) were maintained in vitro as described in TYI-S-33 medium supplemented with penicillin (100 U/mL) and streptomycin (100 µg/mL). Cells were harvested during the logarithmic phase of the growth for antiparasitic assessment. Test compounds were serially diluted and transferred to a white solid bottomed 96-well tissue culture plate (E&K Scientific, Swedesboro, NJ, USA) followed by addition of 5000 G. lamblia trophozoites for a final volume of 100 µL of TYI-S-33 medium and a final concentration of compounds ranging from 50.0 to 0.39 µM. Metronidazole was used as a positive control and assay plates were incubated for 48 h at 37 °C in the GasPak EZ Anaerobic Gas Generating Pouch System (VWR). Parasite viability was measured in triplicate using the CellTiter-Glo luminescence kit in an Envision plate reader. EC50 values were obtained using the GraphPad Prism 9 Software.

[5] = test system: N. fowleri (KUL strain) trophozoites; assay: N. fowleri trophozoite viability assay (CellTiter-Glo); type: cell-based, Naegleria fowleri; conditions: 48 h
Procedure: N. fowleri (KUL strain) was cultured in Nelson’s medium supplemented with 10% FBS and kept at 37 °C. For all experiments, trophozoites were harvested during the logarithmic phase of growth. Test compounds were serially diluted and transferred to a white solid bottomed 96-well tissue culture plate (E&K Scientific, Swedesboro, NJ, USA) followed by addition of 10,000 N. fowleri trophozoites in Nelson’s medium in a final volume of 100 µL and a final concentration of compounds ranging from 50 to 0.39 µM. Amphotericin B was used as positive control and assay plates were incubated for 48 h at 37 °C. Parasite viability was measured as described for E. histolytica and G. lamblia. EC50 values were obtained using the GraphPad Prism 9 Software.

[6] = test system: HEK-293T cells; assay: HEK293 cytotoxicity assay (resazurin); type: cell-based; conditions: human embryonic kidney cells, 48 h, max 4 µM; read-out: CC50 HEK923
Procedure: HEK-293T cells were cultured in DMEM (Gibco) supplemented with 10% heat inactivated FBS (Corning) and 1% penicillin-streptomycin (Gibco). Cells were maintained in vented T75 cell culture flasks (Thermo Scientific, Cat. 12-565-349) at 37 °C and 5% CO2, and were passaged every 72 h. […] Compounds were diluted with fresh DMEM (49 µL/well). HEK-293 cells were suspended at 4 × 10^5 cells/mL in DMEM and added to each well (50 µL/well) to give 2 × 10^4 cells/well. Assay plates were incubated at 37 °C and 5% CO2 for 48 h, followed by addition of 20 µL of 0.5 mM resazurin (Alfa Aesar, Cat. B21187) in PBS to each well. […] In each assay plate, cell viability was normalized relative to positive and negative controls. Assays were performed in biological and technical duplicates, and dose–response and CC50 data were generated with GraphPad Prism 5 using a sigmoidal four parameter logistic curve.

[7] = in B10R cells, 72 h, read-out: EC50 L. donovani ntracelular amastigotes

SMILES	pEC50 [1]	pEC50 ([2]; Leishmania donovani, range over L. donovani and T. cruzi intracellular stages and both parent compounds, read-out: EC50 values against the intracellular stages of both parasites)	pEC50 [2, 7]	CC50 [3] [µM]	pEC50 ([4]; Giardia duodenalis)	pEC50 ([5]; Naegleria fowleri)	pEC50 [4]	pEC50 [5]	CC50 [6] [µM]	pIC50 ([1]; Figure S1 dose response curves, RFU, read-out: IC50 against the promastigotes of L. donovani)	L. donovani intracellular parasites eliminated ([2]; 5 µM) [%]
COc1ccc(NC(=O)CCC(=O)O)cc1 [MS26, 4-(4-methoxyphenylamino)-4 oxobutanoic acid]	< 4.70	5.37 to 5.97	5.97	> 20	< 5.00	< 5.00					
CCC[CH2][Sn]([CH2]CCC)([O]C(=O)CCC(=O)Nc1ccc(OC)cc1)[O]C(=O)CCC(=O)Nc1ccc(OC)cc1 [MS26Bu2]	6.12		6.55	0.14			< 5.00	< 5.00	0.37		
CCC[CH2][Sn]([CH2]CCC)([CH2]CCC)[O]C(=O)CCC(=O)Nc1ccc(OC)cc1 [MS26Bu3]	6.66		6.68	0.22			5.99	5.82	0.14		
CCC[CH2][Sn]([Cl])([Cl])[O]C(=O)CCC(=O)Nc1ccc(OC)cc1 [MS26BuSnCl2]	< 4.70		< 4.70	18.1			< 5.00	< 5.00	> 4		
COc1ccc(NC(=O)CCC(=O)[O][Sn]([CH]2CCCCC2)([CH]2CCCCC2)[CH]2CCCCC2)cc1 [MS26Cy3]							< 5.00	5.12	0.11	6.22	
C[CH2][Sn]([CH2]C)([CH2]C)[O]C(=O)CCC(=O)Nc1ccc(OC)cc1 [MS26Et3]	6.68		6.72	2.79			5.10	5.85			> 95
COc1ccc(NC(=O)CCC(=O)[O][Sn]([CH3])([CH3])[CH3])cc1 [MS26Me3]	< 4.70		5.49	9.41			< 5.00	< 5.00	1.24		
COc1ccc(NC(=O)CCC(=O)[O-])cc1.[Na+] [MS26Na, sodium 4-(4-methoxyphenylamino)-4 oxobutanoate]	6.77		5.41	1.61			< 5.00	< 5.00	> 4		
COc1ccc(NC(=O)CCC(=O)[O][Sn]([c]2ccccc2)([c]2ccccc2)[c]2ccccc2)cc1 [MS26Ph3]	6.41		5.04	0.41			5.28	5.49	0.36		
C=[CH][Sn]([CH]=C)([O]C(=O)CCC(=O)Nc1ccc(OC)cc1)[O]C(=O)CCC(=O)Nc1ccc(OC)cc1 [MS26vin2]	< 4.70		< 4.70	> 20			< 5.00	< 5.00	> 4		

From publication PMC9785441, “A Broad Spectrum Antiparasitic Activity of Organotin (IV) Derivatives and Its Untargeted Proteomic Profiling Using Leishmania donovani” (Pathogens, 2022)
